In US12588677B2, “Herbicidal compositions comprising topramezone” (BASF SE, priority 2024, dated 2026):

Key:
Assay type in all cases: in vivo
Hordeum vulgare (HORVX) = assay: Post-emergence application in field trials; details: height 20-25 cm
Text: (§1) Post-Emergence Application of Herbicide A-1 (A-1) and Topramezone (B-1) in Field Trials
(§2) Herbicide A-1 (342 g/l) and topramezone (336 g/l) were, together with addition of 0.25 v/v % MSO (methylated sed oil) as adjuvant, formulated in water as distribution medium (water volume 200 l/ha) and sprayed with commercial flat fan nozzles.

[1] = tested on: Setaria verticillata (SETVE); assay: Post-emergence application in field trials; details: height 8-16 cm
Text: as §1, §2

Glycine max (GLXMA) [2] = assay: Post-emergence application in field trials; details: height 7-11 cm, 7 DAT
Text: as §1, §2

Zea mays (ZEAMX) [3] = assay: Post-emergence application in field trials; details: height 50-60 cm
Text: as §1, §2

[4] = tested on: Abutilon theophrasti (ABUTH); assay: Post-emergence application in field trials; details: height 10-12 cm
Text: as §1, §2

[5] = tested on: Digitaria sanguinalis (DIGSA); assay: Post-emergence application in field trials; details: 21 DAT, height 10-15 cm
Text: as §1, §2

[6] = tested on: Amaranthus tamariscinus (AMATA); assay: Post-emergence application in greenhouse trials; details: 7 DAT
Description: (§3) The culture containers used were plastic pots containing loamy sand with approximately 3.0% of humus as substrate. The seeds of the test plants were sown separately for each species.
(§4) For the post-emergence treatment, the test plants were grown to a plant height as indicated below, depending on the plant habit, and only then treated with the active compounds which had been suspended or emulsified in water. To this end, the test plants were either sown directly, and grown in the same containers, or they were first grown separately as seedlings and transplanted into the test containers a few days prior to treatment.
(§5) Depending on the species, the plants were kept at 10-25° C. and 20-35° C., respectively. The test period extended over 2 to 4 weeks. During this time, the plants were tended and their response to the individual treatments was evaluated.
(§6) Evaluation was carried out using a scale from 0 to 100. 100 means no emergence of the plants, or complete destruction of at least the above-ground parts, and 0 means no damage or normal course of growth. A good herbicidal activity is given at values of at least 70, and very good herbicidal activity is given at values of at least 85.
(§7) Herbicide A-1 and topramezone were, together with addition of 0.5 v/v % MSO (methylated sed oil) as adjuvant, formulated in water as distribution medium (water volume 200 l/ha) and sprayed with commercial flat fan nozzles.
(§8) Herbicide A-1 (342 g/l), topramezone (336 g/l) and DMTA-p (720 g/l) were, together with addition of 0.5 v/v % MSO (methylated sed oil) as adjuvant, formulated in water as distribution medium (water volume 200 l/ha) and sprayed with commercial flat fan nozzles.

[7] = tested on: Erigeron canadensis (ERICA); assay: Post-emergence application in greenhouse trials; details: 20 DAT
Description: as §3, §4, §5, §6, §7, §8

Avena fatua (AVEFA) = assay: Post-emergence application in greenhouse trials
Description: as §3, §4, §5, §6, §7, §8

Glycine max (GLXMA) [8] = assay: Post-emergence application in greenhouse trials; details: 7 DAT
Description: as §3, §4, §5, §6, §7, §8

Setaria virids (SETVI) = assay: Post-emergence application in greenhouse trials
Description: as §3, §4, §5, §6, §7, §8

Kochia scoparia (KCHSC) = assay: Post-emergence application in greenhouse trials; details: 20 DAT
Description: as §3, §4, §5, §6, §7, §8

[9] = tested on: Commelina benghalenis (COMBE); assay: Post-emergence application in greenhouse trials
Description: as §3, §4, §5, §6, §7, §8

Eleusine indica (ELEIN) = assay: Post-emergence application in greenhouse trials; details: 7 DAT
Description: as §3, §4, §5, §6, §7, §8

Zea mays (ZEAMX) [10] = assay: Post-emergence application in greenhouse trials
Description: as §3, §4, §5, §6, §7, §8

[11] = tested on: Abutilon theophrasti (ABUTH); assay: Post-emergence application in greenhouse trials; details: 7 DAT
Description: as §3, §4, §5, §6, §7, §8

[12] = tested on: Digitaria sanguinalis (DIGSA); assay: Post-emergence application in greenhouse trials; details: 20 DAT
Description: as §3, §4, §5, §6, §7, §8

[13] = tested on: Brachiaria decumbens (BRADC (BRARU)); assay: Post-emergence application in greenhouse trials
Description: as §3, §4, §5, §6, §7, §8

[14] = 7 DAT, growth stage 11, 2 g ai/ha
[15] = 20 DAT, growth stage 12, 0.5 g ai/ha
[16] = 20 DAT, growth stage 12, 1 g ai/ha
[17] = 7 DAT, growth stage 11, 3.125 g ai/ha
[18] = 7 DAT, growth stage 11, 120 g ai/ha

## CCOC(=O)COc1ccccc1Oc1nc(-n2c(=O)cc(C(F)(F)F)n(C)c2=O)c(F)cc1Cl [A-1, ethyl 2-[2-[[3-chloro-5-fluoro-6-[3-methyl-2,6-dioxo-4-(trifluoromethyl)pyrimidin-1-yl]-2-pyridyl]oxy]phenoxy]acetate]
Hordeum vulgare (HORVX); 21 DAT, 12.5 g ai/ha
  % herbicidal activity: 90%
Hordeum vulgare (HORVX); 21 DAT, 18 g ai/ha
  % herbicidal activity: 95%
Hordeum vulgare (HORVX); HORVX, A-1 12.5 g ai/ha, 7 DAT
  % herbicidal activity: 70%
[1]; 21 DAT, 12.5 g ai/ha
  % herbicidal activity: 45%
[1]; 42 DAT, 12.5 g ai/ha
  % herbicidal activity: 30%
Glycine max (GLXMA) [2]; A-1 18 g ai/ha
  % herbicidal activity: 93%
Zea mays (ZEAMX) [3]; 21 DAT, 12.5 g ai/ha
  % herbicidal activity: 70%
Zea mays (ZEAMX) [3]; 21 DAT, 18 g ai/ha
  % herbicidal activity: 75%
Zea mays (ZEAMX) [3]; 28 DAT, 12.5 g ai/ha
  % herbicidal activity: 50%
Zea mays (ZEAMX) [3]; 28 DAT, 18 g ai/ha
  % herbicidal activity: 60%
[4]; 21 DAT, 18 g ai/ha
  % herbicidal activity: 92%
[4]; 42 DAT, 18 g ai/ha
  % herbicidal activity: 90%
[4]; ABUTH, A-1 18 g ai/ha, 7 DAT
  % herbicidal activity: 90%
[5]; 12.5 g ai/ha
  % herbicidal activity: 70%
[6]; growth stage 14, A-1 1 g ai/ha
  % herbicidal activity: 80%
[7]; growth stage 19, 0.5 g ai/ha
  % herbicidal activity: 0%
[7]; growth stage 19, 2 g ai/ha
  % herbicidal activity: 40%
Avena fatua (AVEFA); [14]
  % herbicidal activity: 55%
Avena fatua (AVEFA); 21 DAT, growth stage 11, 2 g ai/ha
  % herbicidal activity: 30%
Glycine max (GLXMA) [8]; growth stage 18, 1 g ai/ha
  % herbicidal activity: 90%
Setaria virids (SETVI); [15]
  % herbicidal activity: 10%
Setaria virids (SETVI); [16]
  % herbicidal activity: 15%
Setaria virids (SETVI); SETVI, growth stage 12, A-1 1 g ai/ha, 7 DAT
  % herbicidal activity: 15%
Setaria virids (SETVI); SETVI, growth stage 12, A-1 2 g ai/ha, 7 DAT
  % herbicidal activity: 25%
Kochia scoparia (KCHSC); growth stage 24, 0.25 g ai/ha
  % herbicidal activity: 0%
[9]; 20 DAT, growth stage 11, 1 g ai/ha
  % herbicidal activity: 5%
[9]; 21 DAT, growth stage 13, 1 g ai/ha
  % herbicidal activity: 80%
Eleusine indica (ELEIN); growth stage 13, A-1 1 g ai/ha
  % herbicidal activity: 45%
Zea mays (ZEAMX) [10]; 7 DAT, growth stage 12, 2 g ai/ha
  % herbicidal activity: 60%
Zea mays (ZEAMX) [10]; 21 DAT, growth stage 12, 2 g ai/ha
  % herbicidal activity: 40%
[11]; growth stage 15, 0.5 g ai/ha
  % herbicidal activity: 85%
[11]; ABUTH, growth stage 13, A-1 0.25 g ai/ha
  % herbicidal activity: 10%
[11]; ABUTH, growth stage 13, A-1 1 g ai/ha
  % herbicidal activity: 50%
[12]; growth stage 13, 0.25 g ai/ha
  % herbicidal activity: 5%
[13]; [14]
  % herbicidal activity: 50%
[13]; 20 DAT, growth stage 12, 0.25 g ai/ha
  % herbicidal activity: 5%
[13]; [15]
  % herbicidal activity: 15%
[13]; [16]
  % herbicidal activity: 30%

## Cc1c(C(=O)c2cnn(C)c2O)ccc(S(C)(=O)=O)c1C1=NOCC1 [B-1, topramezone]
Hordeum vulgare (HORVX); 21 DAT, 12.5 g ai/ha
  % herbicidal activity: 0%
Hordeum vulgare (HORVX); 21 DAT, 18 g ai/ha
  % herbicidal activity: 10%
Hordeum vulgare (HORVX); HORVX, B-1 18 g ai/ha, 7 DAT
  % herbicidal activity: 20%
[1]; 21 DAT, 18 g ai/ha
  % herbicidal activity: 45%
[1]; 42 DAT, 18 g ai/ha
  % herbicidal activity: 40%
Glycine max (GLXMA) [2]; B-1 12.5 g ai/ha
  % herbicidal activity: 45%
Glycine max (GLXMA) [2]; B-1 18 g ai/ha
  % herbicidal activity: 45%
Zea mays (ZEAMX) [3]; 21 DAT, 12.5 g ai/ha
  % herbicidal activity: 0%
Zea mays (ZEAMX) [3]; 21 DAT, 18 g ai/ha
  % herbicidal activity: 0%
Zea mays (ZEAMX) [3]; 28 DAT, 12.5 g ai/ha
  % herbicidal activity: 0%
Zea mays (ZEAMX) [3]; 28 DAT, 18 g ai/ha
  % herbicidal activity: 0%
[4]; 21 DAT, 12.5 g ai/ha
  % herbicidal activity: 60%
[4]; 21 DAT, 18 g ai/ha
  % herbicidal activity: 65%
[4]; 42 DAT, 12.5 g ai/ha
  % herbicidal activity: 60%
[4]; 42 DAT, 18 g ai/ha
  % herbicidal activity: 65%
[4]; ABUTH, B-1 12.5 g ai/ha, 7 DAT
  % herbicidal activity: 50%
[4]; ABUTH, B-1 18 g ai/ha, 7 DAT
  % herbicidal activity: 55%
[5]; 18 g ai/ha
  % herbicidal activity: 40%
[6]; growth stage 14, B-1 6.25 g ai/ha
  % herbicidal activity: 80%
[7]; growth stage 19, 3.12 g ai/ha
  % herbicidal activity: 25%
[7]; growth stage 19, 6.25 g ai/ha
  % herbicidal activity: 55%
Avena fatua (AVEFA); [17]
  % herbicidal activity: 10%
Avena fatua (AVEFA); 21 DAT, growth stage 11, 3.125 g ai/ha
  % herbicidal activity: 10%
Glycine max (GLXMA) [8]; growth stage 18, 3.125 g ai/ha
  % herbicidal activity: 20%
Setaria virids (SETVI); 20 DAT, growth stage 12, 3.12 g ai/ha
  % herbicidal activity: 70%
Setaria virids (SETVI); SETVI, growth stage 12, B-1 6.25 g ai/ha, 7 DAT
  % herbicidal activity: 75%
Kochia scoparia (KCHSC); growth stage 24, 6.25 g ai/ha
  % herbicidal activity: 60%
[9]; 20 DAT, growth stage 11, 6.25 g ai/ha
  % herbicidal activity: 10%
[9]; 21 DAT, growth stage 13, 3.125 g ai/ha
  % herbicidal activity: 35%
Eleusine indica (ELEIN); growth stage 13, B-1 3.12 g ai/ha
  % herbicidal activity: 80%
Zea mays (ZEAMX) [10]; 7 DAT, growth stage 12, 3.125 g ai/ha
  % herbicidal activity: 5%
Zea mays (ZEAMX) [10]; 21 DAT, growth stage 12, 3.125 g ai/ha
  % herbicidal activity: 0%
[11]; growth stage 15, 3.125 g ai/ha
  % herbicidal activity: 50%
[11]; ABUTH, growth stage 13, B-1 3.12 g ai/ha
  % herbicidal activity: 45%
[12]; growth stage 13, 3.12 g ai/ha
  % herbicidal activity: 85%
[13]; [17]
  % herbicidal activity: 50%
[13]; 20 DAT, growth stage 12, 6.25 g ai/ha
  % herbicidal activity: 75%

## COC[C@H](C)N(C(=O)CCl)c1c(C)csc1C [C-23, dimethenamid-p (DMTA-p)]
Avena fatua (AVEFA); [18]
  % herbicidal activity: 0%
Avena fatua (AVEFA); 21 DAT, growth stage 11, 120 g ai/ha
  % herbicidal activity: 40%
Glycine max (GLXMA) [8]; growth stage 18, 120 g ai/ha
  % herbicidal activity: 0%
[9]; 21 DAT, growth stage 13, 120 g ai/ha
  % herbicidal activity: 10%
Zea mays (ZEAMX) [10]; 7 DAT, growth stage 12, 120 g ai/ha
  % herbicidal activity: 0%
Zea mays (ZEAMX) [10]; 21 DAT, growth stage 12, 120 g ai/ha
  % herbicidal activity: 0%
[11]; growth stage 15, 120 g ai/ha
  % herbicidal activity: 0%
[13]; [18]
  % herbicidal activity: 10%
